Measurements as given in paper PMC11124822, “Discovery and Anticancer Screening of Novel Oxindole-Based Derivative Bearing Pyridyl Group as Potent and Selective Dual FLT3/CDK2 Kinase Inhibitor” (Pharmaceuticals, 2024).

Legend:
CCRF-CEM = assay: NCI-60 antiproliferative screen (SRB); assay type: cell-based, human; details: Homo sapiens; 10 µM single dose, 48 h; CCRF-CEM (Leukemia); read-out: Growth inhibition (%)
HL-60(TB) = assay: NCI-60 antiproliferative screen (SRB); assay type: cell-based, human; details: Homo sapiens; 10 µM single dose, 48 h; HL-60(TB) (Leukemia); read-out: Growth inhibition (%)
K-562 = assay: NCI-60 antiproliferative screen (SRB); assay type: cell-based, human; details: Homo sapiens, K562; 10 µM single dose, 48 h; K-562 (Leukemia); read-out: Growth inhibition (%)
MOLT-4 = assay: NCI-60 antiproliferative screen (SRB); assay type: cell-based; details: Homo sapiens; 10 µM single dose, 48 h; MOLT-4 (Leukemia); read-out: Growth inhibition (%)
RPMI-8226 = assay: NCI-60 antiproliferative screen (SRB); assay type: cell-based, human; details: Homo sapiens; 10 µM single dose, 48 h; RPMI-8226 (Leukemia); read-out: Growth inhibition (%)
A549/ATCC = assay: NCI-60 antiproliferative screen (SRB); assay type: cell-based, human; details: Homo sapiens; 10 µM single dose, 48 h; A549/ATCC (NSCLC); read-out: Growth inhibition (%)
NCI-H522 = assay: NCI-60 antiproliferative screen (SRB); assay type: cell-based, human; details: Homo sapiens; 10 µM single dose, 48 h; NCI-H522 (NSCLC); read-out: Growth inhibition (%)
COLO 205 = assay: NCI-60 antiproliferative screen (SRB); assay type: cell-based, human; details: Homo sapiens; 10 µM single dose, 48 h; COLO 205 (Colon); read-out: Growth inhibition (%)
HCT-116 = assay: NCI-60 antiproliferative screen (SRB); assay type: cell-based, human; details: Homo sapiens; 10 µM single dose, 48 h; HCT-116 (Colon); read-out: Growth inhibition (%)
HCT-15 = assay: NCI-60 antiproliferative screen (SRB); assay type: cell-based, human; details: Homo sapiens; 10 µM single dose, 48 h; HCT-15 (Colon); read-out: Growth inhibition (%)
KM12 = assay: NCI-60 antiproliferative screen (SRB); assay type: cell-based, human; details: Homo sapiens; 10 µM single dose, 48 h; KM12 (Colon); read-out: Growth inhibition (%)
SF-295 = assay: NCI-60 antiproliferative screen (SRB); assay type: cell-based, human; details: Homo sapiens; 10 µM single dose, 48 h; SF-295 (CNS); read-out: Growth inhibition (%)
SNB-19 = assay: NCI-60 antiproliferative screen (SRB); assay type: cell-based, human; details: Homo sapiens; 10 µM single dose, 48 h; SNB-19 (CNS); read-out: Growth inhibition (%)
M14 = assay: NCI-60 antiproliferative screen (SRB); assay type: cell-based, human; details: Homo sapiens; 10 µM single dose, 48 h; M14 (Melanoma); read-out: Growth inhibition (%)
SK-MEL-2 = assay: NCI-60 antiproliferative screen (SRB); assay type: cell-based, human; details: Homo sapiens; 10 µM single dose, 48 h; SK-MEL-2 (Melanoma); read-out: Growth inhibition (%)
SK-MEL-28 = assay: NCI-60 antiproliferative screen (SRB); assay type: cell-based, human; details: Homo sapiens; 10 µM single dose, 48 h; SK-MEL-28 (Melanoma); read-out: Growth inhibition (%)
UACC-257 = assay: NCI-60 antiproliferative screen (SRB); assay type: cell-based, human; details: Homo sapiens; 10 µM single dose, 48 h; UACC-257 (Melanoma); read-out: Growth inhibition (%)
UACC-62 = assay: NCI-60 antiproliferative screen (SRB); assay type: cell-based, human; details: Homo sapiens; 10 µM single dose, 48 h; UACC-62 (Melanoma); read-out: Growth inhibition (%)
OVCAR-5 = assay: NCI-60 antiproliferative screen (SRB); assay type: cell-based, human; details: Homo sapiens; 10 µM single dose, 48 h; OVCAR-5 (Ovarian); read-out: Growth inhibition (%)
OVCAR-8 = assay: NCI-60 antiproliferative screen (SRB); assay type: cell-based, human; details: Homo sapiens; 10 µM single dose, 48 h; OVCAR-8 (Ovarian); read-out: Growth inhibition (%)
NCI/ADR-RES = assay: NCI-60 antiproliferative screen (SRB); assay type: cell-based, human; details: Homo sapiens; 10 µM single dose, 48 h; NCI/ADR-RES (Ovarian); read-out: Growth inhibition (%)
SK-OV-3 = assay: NCI-60 antiproliferative screen (SRB); assay type: cell-based, human; details: Homo sapiens; 10 µM single dose, 48 h; SK-OV-3 (Ovarian); read-out: Growth inhibition (%)
A498 = assay: NCI-60 antiproliferative screen (SRB); assay type: cell-based, human; details: Homo sapiens; 10 µM single dose, 48 h; A498 (Renal); read-out: Growth inhibition (%)
CAKI-1 = assay: NCI-60 antiproliferative screen (SRB); assay type: cell-based, human; details: Homo sapiens; 10 µM single dose, 48 h; CAKI-1 (Renal); read-out: Growth inhibition (%)
SN12C = assay: NCI-60 antiproliferative screen (SRB); assay type: cell-based, human; details: Homo sapiens; 10 µM single dose, 48 h; SN12C (Renal); read-out: Growth inhibition (%)
UO-31 = assay: NCI-60 antiproliferative screen (SRB); assay type: cell-based, human; details: Homo sapiens; 10 µM single dose, 48 h; UO-31 (Renal); read-out: Growth inhibition (%)
PC-3 = assay: NCI-60 antiproliferative screen (SRB); assay type: cell-based, human; details: Homo sapiens; 10 µM single dose, 48 h; PC-3 (Prostate); read-out: Growth inhibition (%)
MDA-MB-468 = assay: NCI-60 antiproliferative screen (SRB); assay type: cell-based, human; details: Homo sapiens; 10 µM single dose, 48 h; MDA-MB-468 (Breast); read-out: Growth inhibition (%)
OVCAR-4 = assay: NCI-60 antiproliferative screen (SRB); details: Homo sapiens, OVCAR-4, 48 h, read-out: Growth inhibition (%)
OVCAR-3 = assay: NCI-60 antiproliferative screen (SRB); assay type: cell-based, human; details: Homo sapiens; 10 µM single dose, 48 h; OVCAR-3 (Ovarian); read-out: Growth inhibition (%)

SMILES | inhibition at 10 µM (CCRF-CEM) | inhibition at 10 µM (HL-60(TB)) | inhibition at 10 µM (K-562) | inhibition at 10 µM (MOLT-4) | inhibition at 10 µM (RPMI-8226) | inhibition at 10 µM (A549/ATCC) | inhibition at 10 µM (NCI-H522) | inhibition at 10 µM (COLO 205) | inhibition at 10 µM (HCT-116) | inhibition at 10 µM (HCT-15) | inhibition at 10 µM (KM12) | inhibition at 10 µM (SF-295) | inhibition at 10 µM (SNB-19) | inhibition at 10 µM (M14) | inhibition at 10 µM (SK-MEL-2) | inhibition at 10 µM (SK-MEL-28) | inhibition at 10 µM (UACC-257) | inhibition at 10 µM (UACC-62) | inhibition at 10 µM (OVCAR-5) | inhibition at 10 µM (OVCAR-8) | further results
O=C1Nc2cc(Cl)ccc2C1=Cc1ccc(OCc2ccccc2)cc1 (mixture of isomers) [Compound 5d, (E/Z)-3-[4-(Benzyloxy)benzylidene]-6-chloroindolin-2-one] | -2.18% | -13.1% | 6.91% | 0.86% | -7.36% | -4.59% | 0.19% | -9.74% | 2.33% | 5% | 4.92% | -14.7% | -3.09% | 3.83% | -11.3% | -2.97% | -16.1% | 4.09% | -0.55% | -0.41% | inhibition at 10 µM (NCI/ADR-RES): -4.24%; inhibition at 10 µM (SK-OV-3): -3.01%; inhibition at 10 µM (A498): 6.98%; inhibition at 10 µM (CAKI-1): 10.7%; inhibition at 10 µM (SN12C): 4.03%; inhibition at 10 µM (UO-31): 23.8%; inhibition at 10 µM (PC-3): 11.8%; inhibition at 10 µM (MDA-MB-468): 1.52%; melting point: 259 to 261 °C; inhibition at 10 µM (OVCAR-4): 3.65%
O=C1Nc2ccccc2C1=Cc1ccc(OCc2ccccn2)cc1 (mixture of isomers) [Compound 5e, (E/Z)-3-[4-(Pyridin-2-ylmethoxy]benzylidene) indolin-2-one] | 57.7% | 38.8% | 59.2% | 62.5% | 64% | 29.2% | 24.6% | -14.7% | 41.1% | 45.9% | 61.3% | 27% | 39.3% | 8.3% | -12.2% | -0.76% | 12.6% | 40.4% | 5.53% | 29.7% | inhibition at 10 µM (OVCAR-3): 18.2%; inhibition at 10 µM (NCI/ADR-RES): 46.7%; inhibition at 10 µM (SK-OV-3): 16.8%; inhibition at 10 µM (A498): 16.4%; inhibition at 10 µM (CAKI-1): 40.8%; inhibition at 10 µM (SN12C): 47.7%; inhibition at 10 µM (UO-31): 61.2%; inhibition at 10 µM (PC-3): 44.3%; inhibition at 10 µM (MDA-MB-468): 61.7%; melting point: 221 to 224 °C; inhibition at 10 µM (OVCAR-4): 30.8%
O=C1Nc2ccc(F)cc2C1=Cc1ccc(OCc2ccccn2)cc1 (mixture of isomers) [Compound 5f, (E/Z)-5-fluoro-3-[4-(pyridin-2-ylmethoxy)benzylidene]indolin-2-one] | 5.79% | 13.9% | 14.6% | 3.55% | 19.4% | -1.04% | 68.1% | -10.8% | 57.8% | 10.7% | 18.8% | 1.98% | 12.9% | -5.09% | -3.45% | -8.53% | -4.06% | 9.94% | -9.45% | 3.52% | inhibition at 10 µM (OVCAR-3): 8.17%; inhibition at 10 µM (NCI/ADR-RES): 21.7%; inhibition at 10 µM (SK-OV-3): 3.75%; inhibition at 10 µM (A498): 32.5%; inhibition at 10 µM (CAKI-1): 33.5%; inhibition at 10 µM (SN12C): 4.04%; inhibition at 10 µM (UO-31): 26.5%; inhibition at 10 µM (PC-3): 8.7%; inhibition at 10 µM (MDA-MB-468): 28.2%; melting point: 226 to 228 °C; inhibition at 10 µM (OVCAR-4): 5.38%
O=C1Nc2ccc(Cl)cc2C1=Cc1ccc(OCc2ccccn2)cc1 (mixture of isomers) [Compound 5g, (E/Z)-5-Chloro-3-[4-(pyridin-2-ylmethoxy)benzylidene] indolin-2-one] | 16.8% | 15% | 49% | 53.1% | 26.1% | 35.6% | 34% | 10.9% | 71.5% | 64.3% | 21.2% | 15.5% | 49.3% | 10.1% | -11.4% | -0.48% | -18.2% | 33.3% | 11.8% | 54.1% | inhibition at 10 µM (OVCAR-3): 42.7%; inhibition at 10 µM (NCI/ADR-RES): 85.9%; inhibition at 10 µM (SK-OV-3): 10.8%; inhibition at 10 µM (A498): 54.9%; inhibition at 10 µM (CAKI-1): 38.4%; inhibition at 10 µM (SN12C): 55.5%; inhibition at 10 µM (UO-31): 40.5%; inhibition at 10 µM (PC-3): 37.9%; inhibition at 10 µM (MDA-MB-468): 49.6%; melting point: 219 to 220 °C; inhibition at 10 µM (OVCAR-4): 102%
O=C1Nc2cc(Cl)ccc2C1=Cc1ccc(OCc2ccccn2)cc1 (mixture of isomers) [Compound 5h, (E/Z)-6-Chloro-3-[4-(pyridin-2-ylmethoxy)benzylidene]indolin-2-one] | 53.7% | 5.33% | 31.4% | 61.5% | 32.4% | 62.5% | 31.6% | -3.47% | 47.8% | 45.5% | 21.6% | 14.3% | 20% | 20% | -10.3% | -8.02% | -2.1% | 49.6% | 15.6% | 13.6% | inhibition at 10 µM (OVCAR-3): 6.16%; inhibition at 10 µM (NCI/ADR-RES): 39%; inhibition at 10 µM (SK-OV-3): 4.39%; inhibition at 10 µM (A498): -11.5%; inhibition at 10 µM (CAKI-1): 28.8%; inhibition at 10 µM (SN12C): 24.9%; inhibition at 10 µM (UO-31): 38%; inhibition at 10 µM (PC-3): 54.7%; inhibition at 10 µM (MDA-MB-468): 60.8%; melting point: 260 to 263 °C; inhibition at 10 µM (OVCAR-4): 75.8%
